Results from US6525001B1, “Substituted pyrimidine and pyridine herbicides” (Mid-American Commercialization Corporation, priority 1997, dated 2003).

Experiments:
Format in all cases: in vivo
[1] = system: purple nutsedge (Cyperus rotundus); experiment: Test C; parameters: key: 0 was no effect; 100 was complete control; settings: PREEMERGENCE
[2] = system: crabgrass (Digitaria sanguinalis); experiment: Test B pre-/postemergence; parameters: key: 0 is no effect; 10 is complete control
In short: (§1)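 Compounds in a surfactant-containing, non-phytotoxic solvent blend are applied to freshly planted seed (preemergence) and, concurrently, to seedlings of 2 to 18 cm at 1–4 leaves (postemergence). Plants stay in the greenhouse twelve to sixteen days and are then scored visually from 0 (no effect) to 10 (complete control).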

soybean (Glycine max) = experiment: Test B pre-/postemergence; parameters: key: 0 is no effect; 10 is complete control
In short: as §1

[3] = system: purple nutsedge (Cyperus rotundus); experiment: Test B pre-/postemergence; parameters: key: 0 is no effect; 10 is complete control
In short: as §1

[4] = system: blackgrass (Alopecurus myosuroides); experiment: Test B pre-/postemergence; parameters: key: 0 is no effect; 10 is complete control
In short: as §1

wild oat (Avena fatua) = experiment: Test B pre-/postemergence; parameters: key: 0 is no effect; 10 is complete control
In short: as §1

[5] = system: guineagrass (Panicum maximum); experiment: Test E pre-/postemergence/post directed; parameters: key: 0 is no effect; 100 is complete control
In short: (§2)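 Greenhouse pots; compound in non-phytotoxic solvent with surfactant, sprayed preemergence within one day of planting, postemergence at two to four leaf stage (three to twenty cm), or post directed to plant base and soil. Visual injury rated 13 to 21 days after application, 0 (none) to 100 (complete control).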

[6] = system: sourgrass (Trichachne insularis); experiment: Test E pre-/postemergence/post directed; parameters: key: 0 is no effect; 100 is complete control
In short: as §2

[7] = system: tall mallow (Malva sylvestris); experiment: Test E pre-/postemergence/post directed; parameters: key: 0 is no effect; 100 is complete control; settings: PREEMERGENCE
In short: as §2

[8] = system: dallisgrass (Paspalum dilatatum); experiment: Test E pre-/postemergence/post directed; parameters: key: 0 is no effect; 100 is complete control
In short: as §2

[9] = system: common groundsel (Senecio vulgaris); experiment: Test E pre-/postemergence/post directed; parameters: key: 0 is no effect; 100 is complete control
In short: as §2

[10] = system: lambsquarters (Chenopodium album); experiment: Test C; parameters: key: 0 was no effect; 100 was complete control; settings: PREEMERGENCE

Cc1cnc(-n2ccc(C(F)(F)F)n2)nc1Cn1ccc(C(F)(F)F)n1 [Compound 52]
50: Plant response rating, Sourgrass ([6]; POSTEMERGENCE, Rate 250 g/ha)
10: Plant response rating, Purple nutsedge ([1]; Rate 140 g/ha) | Plant response rating, Crabgrass ([2]; Rate 125 g/ha, Preemergence) | Plant response rating, Crabgrass ([2]; Rate 250 g/ha, Preemergence) | Plant response rating, Crabgrass ([2]; Rate 500 g/ha, Preemergence) | Plant response rating, Blackgrass ([4]; Rate 250 g/ha, Preemergence) | Plant response rating, Blackgrass ([4]; Rate 500 g/ha, Preemergence) | Plant response rating, Wild oats (wild oat (Avena fatua); Rate 500 g/ha, Preemergence) | Plant response rating, Sourgrass ([6]; POSTEMERGENCE, Rate 125 g/ha)
5: Plant response rating, Purple nutsedge ([1]; Rate 70 g/ha) | Plant response rating, Blackgrass ([4]; Rate 62 g/ha, Postemergence) | Blackgrass plant response rating ([4]; Rate 62 g/ha, Preemergence) | Plant response rating, Wild oats (wild oat (Avena fatua); Rate 125 g/ha, Preemergence) | Plant response rating, Dallisgrass ([8]; POSTEMERGENCE, Rate 125 g/ha)
90: Plant response rating, Dallisgrass ([8]; PREEMERGENCE, Rate 125 g/ha)
85: Plant response rating, Guineagrass ([5]; POSTEMERGENCE, Rate 250 g/ha)
35: Plant response rating, Dallisgrass ([8]; PREEMERGENCE, Rate 32 g/ha)
60: Plant response rating, Guineagrass ([5]; PREEMERGENCE, Rate 32 g/ha) | Plant response rating, Tall Mallow ([7]; Rate 32 g/ha)
80: Plant response rating, Guineagrass ([5]; POSTEMERGENCE, Rate 125 g/ha) | Plant response rating, Guineagrass ([5]; PREEMERGENCE, Rate 64 g/ha) | Plant response rating, Dallisgrass ([8]; PREEMERGENCE, Rate 64 g/ha)
8: Crabgrass plant response rating ([2]; Rate 125 g/ha, Postemergence) | Plant response rating, Soybean (soybean (Glycine max); Rate 250 g/ha, Preemergence) | Plant response rating, Blackgrass ([4]; Rate 125 g/ha, Preemergence) | Wild oats plant response rating (wild oat (Avena fatua); Rate 125 g/ha, Postemergence) | Plant response rating, Wild oats (wild oat (Avena fatua); Rate 250 g/ha, Postemergence)
9: Crabgrass plant response rating ([2]; Rate 62 g/ha, Preemergence) | Plant response rating, Crabgrass ([2]; Rate 250 g/ha, Postemergence) | Plant response rating, Crabgrass ([2]; Rate 500 g/ha, Postemergence) | Plant response rating, Soybean (soybean (Glycine max); Rate 62 g/ha, Postemergence) | Soybean plant response rating (soybean (Glycine max); Rate 125 g/ha, Postemergence) | Plant response rating, Soybean (soybean (Glycine max); Rate 250 g/ha, Postemergence) | Plant response rating, Soybean (soybean (Glycine max); Rate 500 g/ha, Postemergence) | Plant response rating, Soybean (soybean (Glycine max); Rate 500 g/ha, Preemergence) | Blackgrass plant response rating ([4]; Rate 125 g/ha, Postemergence) | Plant response rating, Blackgrass ([4]; Rate 250 g/ha, Postemergence) | Plant response rating, Blackgrass ([4]; Rate 500 g/ha, Postemergence) | Plant response rating, Wild oats (wild oat (Avena fatua); Rate 250 g/ha, Preemergence) | Plant response rating, Wild oats (wild oat (Avena fatua); Rate 500 g/ha, Postemergence)
0: Plant response rating, Purple nutsedge ([1]; Rate 35 g/ha) | Nutsedge plant response rating ([3]; Rate 62 g/ha, Preemergence)
7: Plant response rating, Soybean (soybean (Glycine max); Rate 125 g/ha, Preemergence) | Plant response rating, Nutsedge ([3]; Rate 500 g/ha, Postemergence)
100: Plant response rating, Guineagrass ([5]; PREEMERGENCE, Rate 125 g/ha) | Plant response rating, Sourgrass ([6]; PREEMERGENCE, Rate 64 g/ha) | Plant response rating, Sourgrass ([6]; PREEMERGENCE, Rate 125 g/ha) | Plant response rating, Tall Mallow ([7]; Rate 125 g/ha) | Plant response rating, Com. groundsel ([9]; POSTEMERGENCE, Rate 125 g/ha) | Plant response rating, Com. groundsel ([9]; POSTEMERGENCE, Rate 250 g/ha) | Plant response rating, Com. groundsel ([9]; PREEMERGENCE, Rate 125 g/ha) | Plant response rating, Lambsquarters ([10]; Rate 35 g/ha) | Plant response rating, Lambsquarters ([10]; Rate 70 g/ha) | Plant response rating, Lambsquarters ([10]; Rate 140 g/ha)
75: Plant response rating, Dallisgrass ([8]; POSTEMERGENCE, Rate 250 g/ha)
6: Plant response rating, Crabgrass ([2]; Rate 62 g/ha, Postemergence) | Wild oats plant response rating (wild oat (Avena fatua); Rate 62 g/ha, Postemergence)
1: Plant response rating, Nutsedge ([3]; Rate 62 g/ha, Postemergence) | Plant response rating, Nutsedge ([3]; Rate 500 g/ha, Preemergence)
98: Plant response rating, Tall Mallow ([7]; Rate 64 g/ha)
4: Soybean plant response rating (soybean (Glycine max); Rate 62 g/ha, Preemergence)
3: Nutsedge plant response rating ([3]; Rate 125 g/ha, Postemergence) | Wild oats plant response rating (wild oat (Avena fatua); Rate 62 g/ha, Preemergence)
95: Plant response rating, Sourgrass ([6]; PREEMERGENCE, Rate 32 g/ha)
